Laboratory results from patent US5783574A, “Imidazolylakyl derivatives of imidazo [5,1-c][1,4]benzoxazin-1-one process for their preparation” (Pharmacia & Upjohn S.p.A., priority 1994, dated 1998).
Counter-ions that a name gives are not always drawn.

Assays:
5HT3 receptor = target: T1, 5HT3 receptor (Rattus norvegicus, UniProt P35563); assay: inhibition of the von Bezold-Jarisch reflex (chemoreflex) evoked by 5-HT in the anesthetised rat; format: in vivo; details: anesthetized rat, 5-HT 30 μg/kg i.v.; for % inhibition of the von Bezold-Jarisch reflex elicited by 5-HT: compound 100 μg/kg i.v., N=6, mean; for ED50: iv, limits printed on the line below
T1 construct: evoked by 5-HT in the anesthetised rat; from tissue; host or cells: whole anaesthetised rat (by own knowledge: cardiopulmonary vagal afferents)
T1 sequence (P35563 24-483): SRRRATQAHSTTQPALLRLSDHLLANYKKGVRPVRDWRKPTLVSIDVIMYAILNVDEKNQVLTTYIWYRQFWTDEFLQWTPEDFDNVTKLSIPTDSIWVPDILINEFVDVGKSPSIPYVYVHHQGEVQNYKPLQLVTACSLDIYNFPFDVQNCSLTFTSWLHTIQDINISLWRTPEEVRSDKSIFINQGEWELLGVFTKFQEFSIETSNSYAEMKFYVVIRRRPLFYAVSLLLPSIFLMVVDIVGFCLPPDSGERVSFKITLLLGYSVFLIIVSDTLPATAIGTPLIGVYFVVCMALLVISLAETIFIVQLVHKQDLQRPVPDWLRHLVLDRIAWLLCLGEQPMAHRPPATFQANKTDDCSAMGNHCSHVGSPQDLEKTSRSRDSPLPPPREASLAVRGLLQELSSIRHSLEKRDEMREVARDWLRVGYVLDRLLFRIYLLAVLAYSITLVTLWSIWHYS
Protocol: Pharmacol. 326, 36-44 (1984).
Inhibition of the von Bezold-Jarisch reflex
elicited by 5-HT (30 μg/kg i.v.) by FCE
compounds in the anesthetized rat. Values are
mean ± in S.E.M. from N animals

[1] = target: T2, 5-HT3 binding sites in rat brain cortical membranes (Rattus norvegicus, UniProt P35563); assay: inhibition of 3H-BRL 43694 (Granisetron) binding in rat entorhinal cortex membranes; details: read-out: 5-HT3 binding affinity, 3H-BRL 43694 IC50
T2 construct: from tissue; host or cells: rat entorhinal cortex membranes
T2 sequence (P35563 24-483): T1 sequence (P35563 24-483)
Excerpt: [^3 H]-BRL 43694 (Granisetron) is a specific ligand for 5-HT3 binding sites in rat brain cortical membranes: Biochem. Pharmac. 38, 1693-1695, 1989.
The following Table II summarizes the activity data obtained in this in-vitro test for two representative compounds of the invention in comparison with compound A, i.e. a close chemically related compound falling within U.S. Pat. No. 4,134,974.
5-HT3 binding affinity for rat entorhinal

% inhibition of the von Bezold-Jarisch reflex elicited by 5-HT (5HT3 receptor) [%]	ED50 (5HT3 receptor) [mg/kg]	IC50 [1] [nM]	Compound
82	0.0236	76	Cc1[nH]cnc1CN1CC2COc3ccccc3N2C1=O (stereo not shown) [FCE 28158, 2,3,3a,4-tetrahydro-2-(5-methyl-1H-imidazol-4-yl)methyl-1H-imidazo[5,1-c][1,4]benzoxazin-1-one]
97.5	0.00818	6	Cc1[nH]cnc1CN1CC2COc3ccc(Cl)cc3N2C1=O (stereo not shown) [FCE 28609, 2,3,3a,4-tetrahydro-8-chloro-2-(5-methyl-1H-imidazol-4-yl)methyl-1H-imidazo[5,1-c][1,4]benzoxazin-1-one]
		1210	Cc1nccn1CCN1CC2COc3ccccc3N2C1=O (stereo not shown) [Compound A, 2,3,3a,4tetrahydro-2-[2(2-methyl-imidazol-1-yl)ethyl1H-imidazo[5,1c][1,4]enzoxazin1-one hydrochloride, reference compound]
